Reference: PubChem BioAssay AID256 (DTP/NCI, 2004)
“And” between values parts separate entries of the source, which are not always exact repeats. Equal values may be shown once. Inconclusive results and toxic doses are left out. Rule for the calls: active = survival T/C of 150% or more; inactive = T/C below 125% in these data.

System: CD2F1 mice, L1210 leukemia ip, survival T/C
Assay: NCI In Vivo Anticancer Drug Screen. Data for tumor model L1210 Leukemia (intraperitoneal) in CD2F1 (CDF1) mice
Settings: higher = longer survival
How it was run: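 Antitumor effect is scored in animals hosting a serially transplanted tumor. Values compare compound-dosed animals against vehicle-only controls as a simple quotient.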

[1] = endpoint: mean survival time, dose: 100.0 mg/kg/injection, schedule: Q04DX002 (ip), vehicle: saline with Tween-80
[2] = endpoint: mean survival time, dose: 200.0 mg/kg/injection, schedule: Q04DX002 (ip), vehicle: saline with Tween-80
[3] = endpoint: mean survival time, dose: 400.0 mg/kg/injection, schedule: Q04DX002 (ip), vehicle: saline with Tween-80
[4] = endpoint: mean survival time, dose: 100.0 mg/kg/injection, schedule: Q01DX009 (ip), vehicle: saline with Tween-80
[5] = endpoint: mean survival time, dose: 100.0 mg/kg/injection, schedule: Q04DX003 (ip), vehicle: saline with Tween-80
[6] = endpoint: mean survival time, dose: 200.0 mg/kg/injection, schedule: Q01DX009 (ip), vehicle: saline with Tween-80
[7] = endpoint: mean survival time, dose: 200.0 mg/kg/injection, schedule: Q04DX003 (ip), vehicle: saline with Tween-80
[8] = endpoint: mean survival time, dose: 400.0 mg/kg/injection, schedule: Q01DX009 (ip), vehicle: saline with Tween-80
[9] = endpoint: mean survival time, dose: 400.0 mg/kg/injection, schedule: Q04DX003 (ip), vehicle: saline with Tween-80
[10] = endpoint: mean survival time, dose: 50.0 mg/kg/injection, schedule: Q01DX001 (ip), vehicle: saline with Tween-80
[11] = endpoint: mean survival time, dose: 100.0 mg/kg/injection, schedule: Q01DX001 (ip), vehicle: saline with Tween-80
[12] = endpoint: mean survival time, dose: 200.0 mg/kg/injection, schedule: Q01DX001 (ip), vehicle: saline with Tween-80

Measured: T/C

O=C1C2C(C(=O)N1c1ccccc1)C1c3ccccc3C2C2CCCCN21 (stereo unspecified)
inactive: endpoint: mean survival time, dose: 12.5 mg/kg/injection, schedule: Q04DX003 (ip), vehicle: Klucel (hydroxypropylcellulose) (HPC) 95 % of control | endpoint: mean survival time, dose: 25.0 mg/kg/injection, schedule: Q04DX003 (ip), vehicle: Klucel (hydroxypropylcellulose) (HPC) 101 % of control | endpoint: mean survival time, dose: 50.0 mg/kg/injection, schedule: Q04DX003 (ip), vehicle: Klucel (hydroxypropylcellulose) (HPC) 93 % of control

NC1CCCN(Cc2ccccc2)C1 (stereo unspecified)
inactive: endpoint: mean survival time, dose: 75.0 mg/kg/injection, schedule: Q01DX001 (ip), vehicle: saline 95 % of control | endpoint: mean survival time, dose: 150.0 mg/kg/injection, schedule: Q01DX001 (ip), vehicle: saline 97 % of control | endpoint: mean survival time, dose: 300.0 mg/kg/injection, schedule: Q01DX001 (ip), vehicle: saline 97 % of control

O.O=S(=O)(O)O.[NH-]C1CCCC1[NH-].[Pt+2] (stereo unspecified)
active: endpoint: mean survival time, dose: 2.0 mg/kg/injection, schedule: Q01DX009 (ip), vehicle: dextrose 160 % of control | endpoint: mean survival time, dose: 4.0 mg/kg/injection, schedule: Q04DX003 (ip), vehicle: other 165 % of control | endpoint: mean survival time, dose: 6.0 mg/kg/injection, schedule: Q01DX001 (ip), vehicle: dextrose 151 % of control | endpoint: mean survival time, dose: 8.0 mg/kg/injection, schedule: Q04DX003 (ip), vehicle: dextrose 160 % of control and 188 % of control | endpoint: mean survival time, dose: 10.0 mg/kg/injection, schedule: Q01DX001 (ip), vehicle: dextrose 160 % of control
inactive: endpoint: mean survival time, dose: 0.5 mg/kg/injection, schedule: Q01DX009 (ip), vehicle: dextrose 116 % of control and 120 % of control | endpoint: mean survival time, dose: 0.5 mg/kg/injection, schedule: Q04DX003 (ip), vehicle: dextrose 102 % of control and 106 % of control | endpoint: mean survival time, dose: 1.0 mg/kg/injection, schedule: Q01DX001 (ip), vehicle: dextrose 100 % of control and 104 % of control | endpoint: mean survival time, dose: 1.0 mg/kg/injection, schedule: Q04DX003 (ip), vehicle: dextrose 116 % of control and 112 % of control | endpoint: mean survival time, dose: 2.0 mg/kg/injection, schedule: Q04DX003 (ip), vehicle: dextrose 119 % of control | endpoint: mean survival time, dose: 4.0 mg/kg/injection, schedule: Q01DX009 (ip), vehicle: dextrose 108 % of control | endpoint: mean survival time, dose: 16.0 mg/kg/injection, schedule: Q04DX003 (ip), vehicle: dextrose 102 % of control

O=C(C1CC1)N1CCC(O)(c2ccccc2)CC1
inactive: [1] 97 % of control | [2] 93 % of control | [3] 93 % of control

CC(C)C(N)C(=O)Nc1nncs1 (stereo unspecified)
inactive: endpoint: mean survival time, dose: 25.0 mg/kg/injection, schedule: Q01DX009 (ip), vehicle: saline 103 % of control | endpoint: mean survival time, dose: 50.0 mg/kg/injection, schedule: Q01DX009 (ip), vehicle: saline 110 % of control | endpoint: mean survival time, dose: 200.0 mg/kg/injection, schedule: Q01DX009 (ip), vehicle: saline 117 % of control and 97 % of control | endpoint: mean survival time, dose: 400.0 mg/kg/injection, schedule: Q01DX009 (ip), vehicle: saline 89 % of control and 90 % of control | endpoint: median survival time, dose: 12.5 mg/kg/injection, schedule: Q01DX009 (ip), vehicle: saline 94 % of control | endpoint: median survival time, dose: 25.0 mg/kg/injection, schedule: Q01DX009 (ip), vehicle: saline 109 % of control and 112 % of control | endpoint: median survival time, dose: 400.0 mg/kg/injection, schedule: Q01DX009 (ip), vehicle: saline 95 % of control
active: endpoint: mean survival time, dose: 100.0 mg/kg/injection, schedule: Q01DX009 (ip), vehicle: saline 166 % of control | endpoint: median survival time, dose: 50.0 mg/kg/injection, schedule: Q01DX009 (ip), vehicle: saline 151 % of control | endpoint: median survival time, dose: 100.0 mg/kg/injection, schedule: Q01DX009 (ip), vehicle: saline 158 % of control

CC(=O)SCC1C(=O)n2c(cc3ccccc32)C(=O)N1C (stereo unspecified)
inactive: endpoint: mean survival time, dose: 50.0 mg/kg/injection, schedule: Q04DX002 (ip), vehicle: saline with Tween-80 89 % of control | [1] 96 % of control | [2] 101 % of control

CC(=O)c1ccc(N=Nc2c(N)nc(N)nc2N)cc1
inactive: [4] 92 % of control | [5] 89 % of control | [6] 97 % of control | [7] 87 % of control | [8] 98 % of control | [9] 89 % of control

CCC([NH-])(CC)C[NH-].[Cl][Pt+2][Cl]
active: endpoint: mean survival time, dose: 3.13 mg/kg/injection, schedule: Q04DX003 (ip), vehicle: saline 232 % of control | endpoint: mean survival time, dose: 6.25 mg/kg/injection, schedule: Q04DX003 (ip), vehicle: saline 208 % of control
inactive: endpoint: mean survival time, dose: 0.39 mg/kg/injection, schedule: Q04DX003 (ip), vehicle: saline with Tween-80 101 % of control | endpoint: mean survival time, dose: 0.79 mg/kg/injection, schedule: Q04DX003 (ip), vehicle: saline with Tween-80 102 % of control | endpoint: mean survival time, dose: 1.56 mg/kg/injection, schedule: Q04DX003 (ip), vehicle: saline with Tween-80 107 % of control | endpoint: mean survival time, dose: 3.12 mg/kg/injection, schedule: Q04DX003 (ip), vehicle: saline with Tween-80 108 % of control | endpoint: mean survival time, dose: 25.0 mg/kg/injection, schedule: Q04DX003 (ip), vehicle: saline with Tween-80 111 % of control

S=C(S)NN1CCCC1
inactive: endpoint: mean survival time, dose: 25.0 mg/kg/injection, schedule: Q01DX009 (ip), vehicle: saline with Tween-80 101 % of control | endpoint: mean survival time, dose: 50.0 mg/kg/injection, schedule: Q01DX009 (ip), vehicle: saline with Tween-80 100 % of control | [5] 92 % of control

CNC(=O)SCc1ccc(Cl)cc1
inactive: [5] 98 % of control | [7] 96 % of control | [9] 102 % of control

COc1ccc(N=C(C)C2C(=O)c3ccccc3C2=O)cc1
inactive: endpoint: median survival time, dose: 50.0 mg/kg/injection, schedule: Q01DX005 (ip), vehicle: DMSO 101 % of control | endpoint: median survival time, dose: 100.0 mg/kg/injection, schedule: Q01DX005 (ip), vehicle: DMSO 101 % of control | endpoint: median survival time, dose: 200.0 mg/kg/injection, schedule: Q01DX005 (ip), vehicle: DMSO 103 % of control | endpoint: median survival time, dose: 400.0 mg/kg/injection, schedule: Q01DX005 (ip), vehicle: DMSO 103 % of control | endpoint: median survival time, dose: 800.0 mg/kg/injection, schedule: Q01DX005 (ip), vehicle: DMSO 101 % of control

CS(C)=O.[Cl-].[Cl-].[NH-]CC(O)CN(Cc1ccccc1)CC(O)CN.[Pt] (stereo unspecified)
inactive: endpoint: median survival time, dose: 10.0 mg/kg/injection, schedule: Q04DX003 (ip), vehicle: saline 104 % of control | endpoint: median survival time, dose: 20.0 mg/kg/injection, schedule: Q04DX003 (ip), vehicle: saline 109 % of control | endpoint: median survival time, dose: 40.0 mg/kg/injection, schedule: Q04DX003 (ip), vehicle: saline 110 % of control | endpoint: median survival time, dose: 80.0 mg/kg/injection, schedule: Q04DX003 (ip), vehicle: saline 86 % of control

CC1(C)CCC(C)(C)c2c1ccc(O)c2Sc1c(O)ccc2c1C(C)(C)CCC2(C)C
inactive: [4] 97 % of control | [5] 95 % of control | [6] 89 % of control | [7] 97 % of control | [8] 95 % of control | [9] 91 % of control

O=C(COc1ccccc1)NCc1ccc([N+](=O)[O-])cc1
inactive: [10] 96 % of control | [11] 96 % of control | [12] 91 % of control

CCOC(=O)c1ccc(NC(=O)Oc2ccc(NC(C)=O)cc2)cc1
inactive: [4] 95 % of control and 102 % of control | [1] 91 % of control and 94 % of control | [5] 89 % of control | [6] 96 % of control and 100 % of control | [2] 94 % of control and 105 % of control | [7] 86 % of control | [8] 92 % of control and 96 % of control | [3] 92 % of control | [9] 86 % of control

N#C/C(=C\C1CCC2OCOC2C1)C1CCC([N+](=O)[O-])CC1 (stereo unspecified)
inactive: [1] 97 % of control | [2] 87 % of control | [3] 91 % of control

CC(C)(Cl)S(=O)c1ccccc1 (stereo unspecified)
inactive: [5] 93 % of control | [7] 93 % of control | [9] 95 % of control

COc1ccc(CN(C)CCO)cc1OC
inactive: endpoint: median survival time, dose: 25.0 mg/kg/injection, schedule: Q04DX003 (ip), vehicle: saline 100 % of control | endpoint: median survival time, dose: 50.0 mg/kg/injection, schedule: Q04DX003 (ip), vehicle: saline 100 % of control | endpoint: median survival time, dose: 100.0 mg/kg/injection, schedule: Q04DX003 (ip), vehicle: saline 90 % of control | endpoint: median survival time, dose: 200.0 mg/kg/injection, schedule: Q04DX003 (ip), vehicle: saline 100 % of control

C/C(=N\Nc1ccc([N+](=O)[O-])cc1[N+](=O)[O-])C1CCC(=O)O1 (stereo unspecified)
inactive: [10] 109 % of control | [11] 103 % of control | [12] 103 % of control

ON=c1c2ccccc2oc2ccccc12
inactive: endpoint: mean survival time, dose: 100.0 mg/kg/injection, schedule: Q04DX002 (ip), vehicle: Klucel (hydroxypropylcellulose) (HPC) 92 % of control | endpoint: mean survival time, dose: 200.0 mg/kg/injection, schedule: Q04DX002 (ip), vehicle: Klucel (hydroxypropylcellulose) (HPC) 100 % of control

COC1OC2COC(c3ccccc3)OC2C2NC(N)(N[N+](=O)[O-])C12O (stereo unspecified)
inactive: [11] 91 % of control | [12] 88 % of control | endpoint: mean survival time, dose: 400.0 mg/kg/injection, schedule: Q01DX001 (ip), vehicle: saline with Tween-80 94 % of control

C/C(=N\O)c1ccc2c3c(ccc([N+](=O)[O-])c13)CC2
inactive: [5] 98 % of control | [7] 98 % of control | [9] 103 % of control
